Numbering of substitutions follows the chain as printed. pEC50: −log10 of the molar value.
Assays:
Assay in all cases: transactivation assay (GAL4 chimeric receptor, luciferase) in CV-1 cells
Type in all cases: cell-based
Mouse PPAR-α = molecular target: T1, Mouse PPAR-α (Mus musculus, UniProt P23204); conditions: for Emax: CV-1, Relative Response % to maximum effects of the positive control drug, read-out: Max % Mouse PPAR-α; for pEC50: CV-1 cells, GAL4 chimeric receptor, 24 hours
T1 construct: expressed in transfected cells; host or cells: CV-1 (CCL-70, ATCC)
T1 sequence (P23204 239-466 limits assumed): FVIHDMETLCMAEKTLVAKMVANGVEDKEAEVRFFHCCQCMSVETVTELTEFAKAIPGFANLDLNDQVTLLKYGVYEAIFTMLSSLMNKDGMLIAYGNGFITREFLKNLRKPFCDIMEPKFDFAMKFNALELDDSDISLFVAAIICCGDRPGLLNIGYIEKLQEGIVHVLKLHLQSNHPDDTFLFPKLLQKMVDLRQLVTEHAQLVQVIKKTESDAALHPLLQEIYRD
Description: (§1) Following induction of transient intracellular expression of PPAR-α and -γ, an ability of the inventive compounds to induce transactivation of PPARs via activation of each PPAR was evaluated as an efficacy of the compound (transactivation assay).
(§2) For this assay, the African green monkey kidney cell line CV-1 (CCL-70, ATCC) was used as a test cell line, and PPAR-α and -γ were murine- and human-derived PPARs. Samples used were compounds prepared in Examples 19, 21, 23, 25, 26, 27, 31, 33, 34, 36, 38, 40, 42, 43 and 50. As a positive control drug, 3-4-[2-(2-phenyl-4-methyl-1,3-oxazole)ethyloxy]phenyl-(2S)-[(1-methyl-3-oxo-3-phenyl)propenyl]aminopropionic acid was used that is a PPAR-α or -γ agonist which was once under development and whose clinical trials and studies were suspended at phase III. A chimeric receptor was adopted to circumvent the probable interference due to endogenous receptor activation (Jian-Shen Q. et al., Mol Cell Biol (1995) 15(3):1817-1825). The chimeric receptor was constructed as a fusion of a PPAR-α or -γ ligand-binding domain with a DNA-binding domain of GAL4 which is a yeast transactivator.
(§3) The CV-1 cells were transiently transfected with each of chimeric receptor-expressing DNA constructs and each of DNA constructs comprising 5 copies of the GAL4 DNA-binding domain and capable of inducing expression of firefly luciferase or Renilla luciferase using a Lipofectamine Plus reagent (Invitrogen, USA). After transfection for 3 hours, the culture media were replaced with DMEM containing the above samples and 10% fetal bovine serum. 24 hours later, the firefly luciferase activity and Renilla luciferase activity were continuously assayed while adding an equal amount of a dual luciferase assay reagent (Promega, USA) to the cell-containing media. The transfection efficiency was normalized against Renilla luciferase activity (Motomura W. et al., Int J Cancer (2004) 108(1):41-6). The PPAR-α and -γ activity was determined by calculating Relative Response % to maximum effects of the positive control drug, and conducting multiple dose evaluation of the inventive compounds to calculate EC50, which is the concentration of a drug which produces 50% activation relative to maximum effects of the inventive compounds, by nonlinear regression analysis.

Human PPAR-α = molecular target: T2, Human PPAR-α (Homo sapiens, UniProt Q07869); conditions: for Emax: CV-1, Relative Response % to maximum effects of the positive control drug, read-out: Max % Human PPAR-α; for pEC50: CV-1 cells, GAL4 chimeric receptor, 24 hours
T2 construct: expressed in transfected cells; host or cells: CV-1 (CCL-70, ATCC)
T2 sequence (Q07869 239-466 limits assumed): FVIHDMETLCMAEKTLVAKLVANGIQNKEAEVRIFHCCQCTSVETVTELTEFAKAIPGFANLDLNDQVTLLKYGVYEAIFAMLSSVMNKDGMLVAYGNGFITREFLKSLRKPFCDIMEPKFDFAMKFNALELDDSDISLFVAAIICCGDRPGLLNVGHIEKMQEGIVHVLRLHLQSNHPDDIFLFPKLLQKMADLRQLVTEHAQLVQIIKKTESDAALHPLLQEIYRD
Description: as §1, §2, §3

Human PPAR-γ = molecular target: T3, Human PPAR-γ (Homo sapiens, UniProt P37231); conditions: for Emax: CV-1, Relative Response % to maximum effects of the positive control drug, read-out: Max % Human PPAR-γ; for pEC50: CV-1 cells, GAL4 chimeric receptor, 24 hours
T3 construct: expressed in transfected cells; host or cells: CV-1 (CCL-70, ATCC)
T3 sequence (P37231 238-503 limits assumed): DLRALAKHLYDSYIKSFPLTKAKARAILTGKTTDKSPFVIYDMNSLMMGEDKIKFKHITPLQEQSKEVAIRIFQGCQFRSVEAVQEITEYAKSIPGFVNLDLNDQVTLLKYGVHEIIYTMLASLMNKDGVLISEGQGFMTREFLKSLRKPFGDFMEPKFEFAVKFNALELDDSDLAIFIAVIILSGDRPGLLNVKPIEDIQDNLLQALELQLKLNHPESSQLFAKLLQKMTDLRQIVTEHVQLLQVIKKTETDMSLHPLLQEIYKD
Description: as §1, §2, §3

Mouse PPAR-γ = molecular target: T4, Mouse PPAR-γ (Mus musculus, UniProt P37238); conditions: for Emax: CV-1, Relative Response % to maximum effects of the positive control drug, read-out: Max % Mouse PPAR-γ; for pEC50: CV-1 cells, GAL4 chimeric receptor, 24 hours
T4 construct: expressed in transfected cells; host or cells: CV-1 (CCL-70, ATCC)
T4 sequence (P37238 238-503 limits assumed): T3 sequence (P37231 238-503 limits assumed) with S93N, V98I, S146N, L226V, Q245H
Description: as §1, §2, §3

| Compound | Emax (Mouse PPAR-α) [%] | Emax (Human PPAR-α) [%] | pEC50 (Human PPAR-α) | Emax (Human PPAR-γ) [%] | pEC50 (Human PPAR-γ) | Emax (Mouse PPAR-γ) [%] | pEC50 (Mouse PPAR-γ) | pEC50 (Mouse PPAR-α) |
| --- | --- | --- | --- | --- | --- | --- | --- | --- |
| CCO[C@@H](Cc1ccc(OCc2sc(-c3ccc(C(=O)N4CCOCC4)cc3)cc2C)cc1)C(=O)O [Example 17, (S)-2-ethoxy-3-(4-((3-methyl-5-(4-(morpholino-4-carbonyl)phenyl)thiophen-2-yl)methoxy)phenyl)propionic acid] | 11 | 12 | 5.49 | 47 | 5.90 | 117 | 4.84 |  |
| CCO[C@@H](Cc1ccc(OCc2sc(-c3ccc(C4=NCCCO4)cc3)cc2C)cc1)C(=O)O [Example 19, (S)-3-(4-((5-(4-(5,6-dihydro-4H-1,3-oxazin-2-yl)phenyl)-3-methylthiophen-2-yl)methoxy)phenyl)-2-ethoxypropionic acid] | 19 | 44 | 5.18 | 43 | 7.35 | 43 | 6.55 | 5.17 |
| CCO[C@@H](Cc1ccc(OCc2sc(-c3ccc(C4=Nc5ccccc5OC4)cc3)cc2C)cc1)C(=O)O [Example 23, (S)-3-(4-((5-(4-(2H-benzo[b][1,4]oxazin-3-yl)phenyl)-3-methylthiophen-2-yl)methoxy)phenyl)-2-ethoxypropionic acid] | 43 | 44 | 5.70 | 83 | 7.19 | 67 | 6.78 | 6.98 |

Results, then the compound that gave them:

| Emax (Mouse PPAR-α) [%] | Emax (Human PPAR-α) [%] | pEC50 (Human PPAR-α) | Emax (Human PPAR-γ) [%] | pEC50 (Human PPAR-γ) | Emax (Mouse PPAR-γ) [%] | pEC50 (Mouse PPAR-γ) | pEC50 (Mouse PPAR-α) | Compound |
| --- | --- | --- | --- | --- | --- | --- | --- | --- |
| 23 | 19 | 5.85 | 45 | 7.49 | 38 | 7.08 | 5.31 | CCO[C@@H](Cc1ccc(OCc2sc(-c3ccc(-c4csnn4)cc3)cc2C)cc1)C(=O)O [Example 24, (S)-3-(4-((5-(4-(1,2,3-thiadiazol-4-yl)phenyl)-3-methylthiophen-2-yl)methoxy)phenyl)-2-ethoxypropionic acid] |
| 35 | 63 | 5.28 | 48 | 7.02 | 48 | 6.53 | 6.35 | CCO[C@@H](Cc1ccc(OCc2sc(-c3ccc(-c4noc(C)n4)cc3)cc2C)cc1)C(=O)O [Example 25, (S)-2-ethoxy-3-(4-((3-methyl-5-(4-(5-methyl-1,2,4-oxadiazol-3-yl)phenyl)thiophen-2-yl)methoxy)phenyl)propionic acid] |
| 31 | 52 | 5.91 | 66 | 7.31 | 48 | 6.93 | 6.42 | CCO[C@@H](Cc1ccc(OCc2sc(-c3ccc(-c4nnn(C)n4)cc3)cc2C)cc1)C(=O)O [Example 29, (S)-2-ethoxy-3-(4-((3-methyl-5-(4-(2-methyl-2H-tetrazol-5-yl)phenyl)thiophen-2-yl)methoxy)phenyl)propionic acid] |
| 10 | 21 | 6.32 | 25 | 7.00 | 23 | 7.24 | 5.51 | CCO[C@@H](Cc1ccc(OCc2sc(-c3ccc(-c4nnn(C(C)C)n4)cc3)cc2C)cc1)C(=O)O [Example 31, (S)-2-ethoxy-3-(4-((5-(4-(2-isopropyl-2H-tetrazol-5-yl)phenyl)-3-methylthiophen-2-yl)methoxy)phenyl)propionic acid] |
| 31 | 31 | 6.32 | 75 | 7.74 | 81 | 6.75 | 5.46 | CCO[C@@H](Cc1ccc(OCc2sc(-c3ccc(-c4nc(C)c(C)o4)cc3)cc2C)cc1)C(=O)O [Example 34, (S)-3-(4-((5-(4-(4,5-dimethyloxazol-2-yl)phenyl)-3-methylthiophen-2-yl)methoxy)phenyl)-2-ethoxypropionic acid] |

Reference: US20100063041A1, “NOVEL PHENYLPROPIONIC ACID DERIVATIVES AS PEROXISOME PROLIFERATOR-ACTIVATED GAMMA RECEPTOR MODULATORS, METHOD OF THE SAME, AND PHARMACEUTICAL COMPOSITION COMPRISING THE SAME” (priority 2007, published 2010)
